Measurements reported in the NIST ThermoML archive (doi:10.1021/je901079k).
± gives the expanded uncertainty stated by the source.

Experiment: xn = mol fraction of the nth substance listed
Details: Maximal bubble pressure

F.[F-].[Na+] [sodium hydrogen fluoride] + [F][Al]([F])[F]
Details	surface tension liquid-gas [mN/m]
1130.2 K, x1 = 0.6	92.04 ± 2.8
1159.2 K, x1 = 0.6	89.61 ± 2.7
1184.2 K, x1 = 0.6	87.51 ± 2.7
1215.2 K, x1 = 0.6	84.94 ± 2.6
1239.7 K, x1 = 0.6	82.84 ± 2.5
1274.2 K, x1 = 0.6667	105.93 ± 3.2
1297.2 K, x1 = 0.6667	104.59 ± 3.2
1297.2 K, x1 = 0.7143	121.35 ± 3.7
1299.2 K, x1 = 0.75	132.71 ± 4
1318.2 K, x1 = 0.7143	118.25 ± 3.6
1318.2 K, x1 = 0.75	130.09 ± 4
1319.2 K, x1 = 0.6667	103.14 ± 3.1
1329.2 K, x1 = 0.7143	116.62 ± 3.6
1339.2 K, x1 = 0.75	127.18 ± 3.9
1340.2 K, x1 = 0.6667	101.57 ± 3.1
1348.2 K, x1 = 0.7143	113.82 ± 3.5
1368.2 K, x1 = 0.7143	110.87 ± 3.4
1370.2 K, x1 = 0.75	122.89 ± 3.7
